Where no end group is shown, it is not given here.
Experiments:
IL-10 = assay: ETEC7-infected mouse model: serum cytokine ELISA; type: in vivo; details: ETEC7-infected ICR mice, 9000 U orally for 7 days, 7 dpi, among the groups, p > 0.05, n = 6/group
Description: (§1) The animal experiment was approved by the Animal Ethics and Welfare Committee of Huazhong Agricultural University, Wuhan, China (HZAUMO-2023-0264). The animal model was established as in our previous experiment. Female ICR mice (3–4 weeks old) were obtained from the Laboratory Animals Center of Huazhong Agricultural University. After 5 days of adaptation, 36 mice were randomly assigned into 6 groups (n = 6/group), namely, a control group (only phosphate-buffered saline (PBS) treatment), the ETEC7 group (ETEC7 and PBS treatment), the COL group (ETEC7 and 9000 U colistin sulfate treatment), the HP group (ETEC7 and 16 AU rPBD2 treatment), the MP group (ETEC7 and 8 AU rPBD2 treatment), and the LP group (ETEC7 and 4 AU rPBD2 treatment). The mice were fed antibiotics, including kanamycin (400 mg/L), gentamicin (35 mg/L), vancomycin (45 mg/L), metronidazole (215 mg/L), and colistin (850 U/mL), in drinking water for 72 h and were then fed normal water for another 24 h. All mice were fasted for 12 h and then were orally gavaged with 200 μL 3% NaHCO3 30 min prior to the challenge with 10^9 CFU of ETEC7. The mice were orally infected with ETEC7 once a day for 3 days. […] The control and ETEC7 groups were administrated with the same volume of PBS. All mice were treated with PBS, colistin sulfate, or rPBD2 for 7 continuous days.
(§2) Body weight change was calculated as ((final body weight − initial body weight)/initial body weight) × 100%. Diarrhea scores were recorded at 1, 3, 5, and 7 days post infection (dpi) based on the following scoring criteria: (1) normal stool: 0 point; (2) color change/consistency: 1 point; (3) presence of wet tail or mucosa: 2 points; (4) watery stool: 3 points. A score of 1 was considered diarrhea. Fresh stools and 1 cm colon were collected and suspended in sterile PBS. Ten-fold serial dilutions of stool or colon homogenate were plated on MacConkey plates containing 100 μg/mL ampicillin. […] Intestine water content (intestine/carcass ratio) was measured as described previously. The cecum index was calculated as cecum weight (g)/body weight (g). […]

TNF-α = assay: ETEC7-infected mouse model: serum cytokine ELISA; type: in vivo; details: ETEC7-infected ICR mice, 9000 U (COL group) orally for 7 days, 7 dpi, p < 0.05, n = 6/group
Description: as §1, §2

IL-6 = assay: ETEC7-infected mouse model: serum cytokine ELISA; type: in vivo; details: ETEC7-infected ICR mice, 9000 U (COL group) orally for 7 days, 7 dpi, p < 0.05, n = 6/group
Description: as §1, §2

ETEC7 [1] = assay: ETEC7-infected mouse model: clinical symptoms (body weight, diarrhea score, intestine/carcass ratio, cecum index); type: in vivo, ICR mice; details: 9000 U orally for 7 days, n = 6/group
Description: as §1, §2

ETEC7 [2] = assay: ETEC7-infected mouse model: ileum morphology (HE staining); type: in vivo; details: ETEC7-infected ICR mice, 7 dpi, n = 6/group
Description: as §1, §2

E. coli K88 = assay: ETEC7-infected mouse model: E. coli loads in stool and colon; type: in vivo; details: ETEC7-infected ICR mice, COL group, 9000 U orally for 7 days, p < 0.05, n = 6/group
Description: The animal experiment was approved by the Animal Ethics and Welfare Committee of Huazhong Agricultural University, Wuhan, China (HZAUMO-2023-0264). The animal model was established as in our previous experiment. Female ICR mice (3–4 weeks old) were obtained from the Laboratory Animals Center of Huazhong Agricultural University. After 5 days of adaptation, 36 mice were randomly assigned into 6 groups (n = 6/group), namely, a control group (only phosphate-buffered saline (PBS) treatment), the ETEC7 group (ETEC7 and PBS treatment), the COL group (ETEC7 and 9000 U colistin sulfate treatment), the HP group (ETEC7 and 16 AU rPBD2 treatment), the MP group (ETEC7 and 8 AU rPBD2 treatment), and the LP group (ETEC7 and 4 AU rPBD2 treatment). […]
as §2, with “points.” for “points. A score of 1 was considered diarrhea. Fresh stools and 1 cm colon were collected and suspended in sterile PBS. Ten-fold serial dilutions of stool or colon homogenate were plated on MacConkey plates containing 100 μg/mL ampicillin.”

[3] = in the presence of 150 mM NaCl or 2.5 mM CaCl2; cited from earlier work
Description: It has been reported that PBD2 has antibacterial activity against Gram-positive and -negative bacteria. […] When AMPs are used in the animal industry, many factors, including temperature, pH, enzymes, and salt ions, may affect their activities. […] This may allow crude rPBD2 to endure the ...

[4] = 9000 U (COL group) orally for 7 days, p < 0.05

Row | Substance | serum IL-10 levels (IL-10) | serum TNF-α levels (TNF-α) | serum IL-6 levels (IL-6) | diarrhea scores (ETEC7 [1]; ETEC7-infected ICR mice, 1, 3, 5, 7 dpi, vs ETEC7 group) | cecum index (ETEC7 [1]; ETEC7-infected ICR mice, 7 dpi, among the groups) | final body weight (ETEC7 [1]; female ICR mice, ETEC7 10^9 CFU orally once a day for 3 days, 7 dpi, among groups, p > 0.05) | VH/CD (villus height/crypt depth, ileum) (ETEC7 [2]; [4]) | villus height (ileum) (ETEC7 [2]; [4]) | crypt depth (ileum) (ETEC7 [2]; 9000 U orally for 7 days, among the groups, p > 0.05) | colonized numbers of E. coli K88 in the colon (E. coli K88; 7 dpi) | bacterial loads in feces (E. coli K88; vs ETEC7 group) | antibacterial activity in the presence of salts [3]
1 | colistin sulfate | no significant differences | significantly decrease | could decrease the levels of IL-6 | relative lower diarrhea scores but without significant differences | no significant differences | no significant differences | significantly increase | significantly increase | no significant differences | lower than those in the ETEC7 group | significantly decreased | –
2 | synthetic human β-defensin 3 (hBD-3): synthetic human β-defensin 3, literature comparison (GIINTLQKYYCRVRGGRCAVLSCLPKEEQIGKCSTRGRKCCRRKK; ends and bridges not checked; cysteine pairing not given here; UniProt P81534 23-67, looked up) | – | – | – | – | – | – | – | – | – | – | – | completely abolished
